Experimental data taken from patent US12252701B2, “Chimeric antigen receptor T cell therapy” (KITE PHARMA, INC., priority 2020, dated 2025).

How the values were obtained:
[1] = Clinical pharmacokinetic data converted to in vitro concentrations; conditions: human, in vivo
Description: Given the different potencies of the JAK inhibitors and different pharmacokinetic properties for each drug, it was sought to test each drug at a relevant range of physiological concentrations based on clinical dosing and reported pharmacokinetic data from repeat dose studies. Reported Cmax values in patient sera were converted to in vitro concentrations and adjusted for reported plasma protein binding.

[2] = system: phospho-STAT panel (pSTAT3/4/5), CD3+ T cells; assay: phospho-STAT induction by IL-6, MesoScale Discovery phospho-STAT panel; type: cell-based, human; conditions: CD3+ T cells
Experimental: CD19 CAR-T, PBMC or CD3+ T cells (AllCells) were thawed and rested 0/N at 37° C. in R10 media. Cells were seeded at 700,000 cells/well and were either untreated or treated with 100 ng/ml IL6+drug at indicated concentrations for 20 minutes at 37° C. The cells were then washed with cold PBS and followed by 60 μl of Tris lysis buffer (provided by MSD) for 30 minutes on ice. Lysates were collected by spin down for 10 minutes at >10,000 rpm. 25 μl/well per condition was used for MesoScale Discovery (MSD) assay using the phospho-STAT panel (pSTAT3/4/5) from MesoScale Discovery following the manufacturer's protocol. pSTAT panel plates were blocked with 150 μl of blocker A solution for 1 hr at RT with shaking. Plates were washed three times with 1× Tris wash buffer. 25 μl of lysate samples were added per well, incubated 2 hr at room temperature or at 4° C. overnight. Plates were washed 3 times with 1× tris wash buffer and then 25 μl of detection antibody solution were added to each well and incubated for 1 hr at room temperature with shaking. Plates were washed and 1× read buffer added to each well and plates were read on the MSD instrument.

[3] = system: phospho-STAT-1, -3 and -5 in purified CD14+ monocytes; assay: Intracellular phospho-STAT-1, -3, -5 by BD PhosphoFlow in purified monocytes; type: cell-based, human; set-up: Monocyte-specific pSTAT1 signaling, inhibition / Monocyte-specific pSTAT3 signaling, inhibition / Monocyte-specific pSTAT5 signaling, inhibition: concentration or dose not given beside the values; conditions: purified CD14+ monocytes
Experimental: Further experiments were performed to look at impacts of JAK inhibitors on STAT phosphorylation in various immune cell subsets.

in vitro = conditions: human, CAR-T cells
Experimental: 96-well plates were coated with 100 μl of KIP-1 antibody per well at 1 μg/ml in PBS and plates were incubated at 4° C. overnight. CAR-T cells were thawed and were rested in ImmunoCult expansion medium and incubated overnight at 37° C. Cells were then counted and resuspended at 2 million cells/ml and seed at 200,000 cells per well in 100 μl of expansion medium with 10 ng/ml recombinant IL2. For groups treated with KIP-1, 100 μl of expansion medium were added with 2× final drug dilutions. For CD3/CD28 treated groups, 100 μl of expansion media were added with 2× final drug dilutions containing 25 μl/ml of CD3/CD28 T cell activator from StemCell Technologies. Cells were then incubated at 37° C. After 4 days, cells were counted and diluted 1 to 8-fold in expansion media and then transferred to a 24-well plate. Cell counts were repeated at day 7 and transferred to T25 flasks. On day 11, all cells were harvested and counted.

Nalm-6 luc = assay: CAR-T cell killing assay (luciferase viability of tumor cells)
[4] = CAR T cell-derived supernatant, 30 min

With `CC[C@@H]1CN(C(=O)NCC(F)(F)F)C[C@@H]1c1cnc2cnc3[nH]ccc3n12` [upadacitinib] the “PPB adj. in Vitro concentration” value [1] was 97 nM, the “clinically relevant dose level (in vitro concentration)” value [1] was ~100 nM and the pSTAT3 ([2]; 100 ng/ml IL-6 + drug 10 uM, 20 min, MSD signal (No stim. 689, IL-6 alone 33641)) was 2450. It also gave a pSTAT4 ([2]; 100 ng/ml IL-6 + drug 10 uM, 20 min, MSD signal (No stim. 1964, IL-6 alone 15405)) of 2322, a pSTAT5 ([2]; 100 ng/ml IL-6 + drug 10 uM, 20 min, MSD signal (No stim. 9210, IL-6 alone 17743)) of 1354 and a pSTAT3 ([2]; IL-6 + drug 0.125 uM, MSD signal (No stim. 689, IL-6 alone 33641)) of 3605. The pSTAT4 ([2]; IL-6 + drug 0.125 uM, MSD signal (No stim. 1964, IL-6 alone 15405)) was 2819, the pSTAT5 ([2]; IL-6 + drug 0.125 uM, MSD signal (No stim. 9210, IL-6 alone 17743)) was 1757 and the pSTAT3 ([2]; IL-6 + drug 0.5 uM, MSD signal (No stim. 689, IL-6 alone 33641)) was 2207. The pSTAT4 ([2]; IL-6 + drug 0.5 uM, MSD signal (No stim. 1964, IL-6 alone 15405)) was 2397, the pSTAT5 ([2]; IL-6 + drug 0.5 uM, MSD signal (No stim. 9210, IL-6 alone 17743)) was 1528 and the pSTAT3 ([2]; IL-6 + drug 1 uM, MSD signal (No stim. 689, IL-6 alone 33641)) was 2393. It also gave a pSTAT4 ([2]; IL-6 + drug 1 uM, MSD signal (No stim. 1964, IL-6 alone 15405)) of 2417, a pSTAT5 ([2]; IL-6 + drug 1 uM, MSD signal (No stim. 9210, IL-6 alone 17743)) of 1534 and a pSTAT3 ([2]; IL-6 + drug 5 uM, MSD signal (No stim. 689, IL-6 alone 33641)) of 2290. The pSTAT4 ([2]; IL-6 + drug 5 uM, MSD signal (No stim. 1964, IL-6 alone 15405)) was 2229, the pSTAT5 ([2]; IL-6 + drug 5 uM, MSD signal (No stim. 9210, IL-6 alone 17743)) was 1452 and the pSTAT3 ([2]; lower dose titration, IL-6 + drug 3.125 nM, MSD signal (No stim. 123, IL-6 alone 5767)) was 4615. It also gave a pSTAT4 ([2]; lower dose titration, IL-6 + drug 3.125 nM, MSD signal (No stim. 281, IL-6 alone 3624)) of 2687, a pSTAT5 ([2]; lower dose titration, IL-6 + drug 3.125 nM, MSD signal (No stim. 324, IL-6 alone 2352)) of 1166 and a pSTAT3 ([2]; lower dose titration, IL-6 + drug 6.25 nM, MSD signal (No stim. 123, IL-6 alone 5767)) of 3572. For the same molecule, the pSTAT4 ([2]; lower dose titration, IL-6 + drug 6.25 nM, MSD signal (No stim. 281, IL-6 alone 3624)) was 2797, the pSTAT5 ([2]; lower dose titration, IL-6 + drug 6.25 nM, MSD signal (No stim. 324, IL-6 alone 2352)) was 1123 and the pSTAT3 ([2]; lower dose titration, IL-6 + drug 12.5 nM, MSD signal (No stim. 123, IL-6 alone 5767)) was 2560. It also gave a pSTAT4 ([2]; lower dose titration, IL-6 + drug 12.5 nM, MSD signal (No stim. 281, IL-6 alone 3624)) of 1607, a pSTAT5 ([2]; lower dose titration, IL-6 + drug 12.5 nM, MSD signal (No stim. 324, IL-6 alone 2352)) of 696 and a pSTAT3 ([2]; lower dose titration, IL-6 + drug 25 nM, MSD signal (No stim. 123, IL-6 alone 5767)) of 1495. For the same molecule, the pSTAT4 ([2]; lower dose titration, IL-6 + drug 25 nM, MSD signal (No stim. 281, IL-6 alone 3624)) was 1248, the pSTAT5 ([2]; lower dose titration, IL-6 + drug 25 nM, MSD signal (No stim. 324, IL-6 alone 2352)) was 564 and the pSTAT3 ([2]; lower dose titration, IL-6 + drug 50 nM, MSD signal (No stim. 123, IL-6 alone 5767)) was 713. It also gave a pSTAT4 ([2]; lower dose titration, IL-6 + drug 50 nM, MSD signal (No stim. 281, IL-6 alone 3624)) of 860, a pSTAT5 ([2]; lower dose titration, IL-6 + drug 50 nM, MSD signal (No stim. 324, IL-6 alone 2352)) of 460 and a pSTAT3 ([2]; lower dose titration, IL-6 + drug 100 nM, MSD signal (No stim. 123, IL-6 alone 5767)) of 319. For the same molecule, the pSTAT4 ([2]; lower dose titration, IL-6 + drug 100 nM, MSD signal (No stim. 281, IL-6 alone 3624)) was 555, the pSTAT5 ([2]; lower dose titration, IL-6 + drug 100 nM, MSD signal (No stim. 324, IL-6 alone 2352)) was 375 and the “Monocyte-specific pSTAT1 signaling, inhibition” value [3, 4] was 100%. For the same molecule, the “Monocyte-specific pSTAT3 signaling, inhibition” value [3, 4] was 100%, the “Monocyte-specific pSTAT5 signaling, inhibition” value [3, 4] was 63% and the “Monocyte-specific pSTAT1 signaling, inhibition” value ([3]; rh-GM-CSF-induced) was “na/ni”. The “Monocyte-specific pSTAT3 signaling, inhibition” value ([3]; rh-GM-CSF-induced) was “na/ni”, the “Monocyte-specific pSTAT5 signaling, inhibition” value ([3]; rh-GM-CSF-induced) was 54% and the “Monocyte-specific pSTAT1 signaling, inhibition” value ([3]; rhIFNg-induced) was 100%. For the same molecule, the “Monocyte-specific pSTAT3 signaling, inhibition” value ([3]; rhIFNg-induced) was 100%, the “Monocyte-specific pSTAT5 signaling, inhibition” value ([3]; rhIFNg-induced) was 100% and the “Monocyte-specific pSTAT1 signaling, inhibition” value ([3]; rhIL6-induced) was “na/ni”. The “Monocyte-specific pSTAT3 signaling, inhibition” value ([3]; rhIL6-induced) was 100%, the “Monocyte-specific pSTAT5 signaling, inhibition” value ([3]; rhIL6-induced) was “na/ni” and the viability at 0 day, 50 nM (in vitro) was 75%. It also gave a viability at 0 day, 100 nM (in vitro) of 75%, a viability at 4 day, 50 nM (in vitro) of 63.2% and a viability at 4 day, 100 nM (in vitro) of 59.9%. The viability at 8 day, 50 nM (in vitro) was 65.3%, the viability at 8 day, 100 nM (in vitro) was 62% and the viability at 12 day, 50 nM (in vitro) was 79%. The viability at 12 day, 100 nM (in vitro) was 67.5%, the “Mean tumor cell death (%)” value (Nalm-6 luc; E:T ratio 1:1, dose 10 nM) was 96.9% and the “Mean tumor cell death (%)” value (Nalm-6 luc; E:T ratio 1:1, dose 20 nM) was 96.3%. For the same molecule, the “Mean tumor cell death (%)” value (Nalm-6 luc; E:T ratio 1:1, dose 40 nM) was 96.3%, the “Mean tumor cell death (%)” value (Nalm-6 luc; E:T ratio 1:1, dose 60 nM) was 94.5% and the “Mean tumor cell death (%)” value (Nalm-6 luc; E:T ratio 1:1, dose 80 nM) was 94.4%. The “Mean tumor cell death (%)” value (Nalm-6 luc; E:T ratio 1:1, dose 100 nM) was 92%, the “Mean tumor cell death (%)” value (Nalm-6 luc; E:T ratio 1:3, dose 10 nM) was 68.1% and the “Mean tumor cell death (%)” value (Nalm-6 luc; E:T ratio 1:3, dose 20 nM) was 66.1%. The “Mean tumor cell death (%)” value (Nalm-6 luc; E:T ratio 1:3, dose 40 nM) was 60.5%, the “Mean tumor cell death (%)” value (Nalm-6 luc; E:T ratio 1:3, dose 60 nM) was 46.2% and the “Mean tumor cell death (%)” value (Nalm-6 luc; E:T ratio 1:3, dose 80 nM) was 46.5%. For the same molecule, the “Mean tumor cell death (%)” value (Nalm-6 luc; E:T ratio 1:3, dose 100 nM) was 25.7%, the “Mean tumor cell death (%)” value (Nalm-6 luc; E:T ratio 1:9, dose 10 nM) was 35.6% and the “Mean tumor cell death (%)” value (Nalm-6 luc; E:T ratio 1:9, dose 20 nM) was 25.6%. The “Mean tumor cell death (%)” value (Nalm-6 luc; E:T ratio 1:9, dose 40 nM) was 34.7%, the “Mean tumor cell death (%)” value (Nalm-6 luc; E:T ratio 1:9, dose 60 nM) was 33.4% and the “Mean tumor cell death (%)” value (Nalm-6 luc; E:T ratio 1:9, dose 80 nM) was 23%. For the same molecule, the “Mean tumor cell death (%)” value (Nalm-6 luc; E:T ratio 1:9, dose 100 nM) was 16.9%.
